Measured values: ChEMBL document CHEMBL1201862, “PubChem BioAssay data set” (2004)
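In this assay, cells in 96-well plates receive the compound at five concentrations for 48 hours. Endpoints are linearly interpolated between the surrounding concentrations. GI50 is the concentration that inhibits growth by half.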 Activity calls are given as the source filed them. Rule as the data show it: active = GI50 up to about 1.1 µM and inactive = higher.

Assays:
Test in all cases: DTP human tumour cell line panel, 48 h
EKVX = test system: EKVX
HCT-116 = test system: HCT-116
HOP-62 = test system: HOP-62
HOP-92 = test system: HOP-92
Hs-578T = test system: Hs-578T
KM12 = test system: KM12
MCF7 = test system: MCF7
NCI-H23 = test system: NCI-H23
NCI/ADR-RES = test system: NCI/ADR-RES
PC-3 = test system: PC-3
RXF 393 = test system: RXF 393
SF-539 = test system: SF-539
SK-MEL-5 = test system: SK-MEL-5
SK-OV-3 = test system: SK-OV-3
SNB-19 = test system: SNB-19
TK-10 = test system: TK-10
UACC-62 = test system: UACC-62
HCC 2998 = test system: HCC 2998
SK-MEL-28 = test system: SK-MEL-28
SN12C = test system: SN12C

Structure (SMILES) | GI50 (EKVX) | GI50 (HCT-116) | GI50 (HOP-62) | GI50 (HOP-92) | GI50 (Hs-578T) | GI50 (KM12) | GI50 (MCF7) | GI50 (NCI-H23) | GI50 (NCI/ADR-RES) | GI50 (PC-3) | GI50 (RXF 393) | GI50 (SF-539) | GI50 (SK-MEL-5) | GI50 (SK-OV-3) | GI50 (SNB-19) | GI50 (TK-10) | GI50 (UACC-62) | GI50 (HCC 2998) | GI50 (SK-MEL-28) | GI50 (SN12C)
Cc1[nH]n(C2=NCCN2)c(=O)c1C | > 100 µM (inactive) | > 100 µM (inactive) | > 100 µM (inactive) | > 100 µM (inactive) | > 100 µM (inactive) | > 100 µM (inactive) | > 100 µM (inactive) | > 100 µM (inactive) | > 100 µM (inactive) | > 100 µM (inactive) | > 100 µM (inactive) | > 100 µM (inactive) | > 100 µM (inactive) | > 100 µM (inactive) | > 100 µM (inactive) | > 100 µM (inactive) | > 100 µM (inactive) | – | – | –
O=C1Nc2ccc(Br)cc2/C1=N/Nc1ccccc1[N+](=O)[O-] | 6.31 µM (inactive) | 32.4 µM (inactive) | 11.4 µM (inactive) | – | 16.1 µM (inactive) | 8.2 µM (inactive) | 20.8 µM (inactive) | 3.56 µM (inactive) | 15.8 µM (inactive) | 15.8 µM (inactive) | 32.7 µM (inactive) | > 100 µM (inactive) | 8.63 µM (inactive) | 24 µM (inactive) | 28.6 µM (inactive) | 10.3 µM (inactive) | 22.2 µM (inactive) | 13 µM (inactive) | 19.7 µM (inactive) | 18.8 µM (inactive)
Cc1ccc(O)c(-c2cscn2)c1 | 32.2 µM (inactive) | 30.4 µM (inactive) | 33.3 µM (inactive) | 43.7 µM (inactive) | 32.9 µM (inactive) | – | 39.9 µM (inactive) | 39.4 µM (inactive) | 51.9 µM (inactive) | 39.8 µM (inactive) | – | 30.8 µM (inactive) | 23.7 µM (inactive) | 32.6 µM (inactive) | 25.1 µM (inactive) | 44.8 µM (inactive) | 55 µM (inactive) | 24.7 µM (inactive) | – | 35.2 µM (inactive)
Brc1cccc(Nc2ncnc3sc4c(c23)CCC2(C4)OCCO2)c1 | 19.3 µM (inactive) | 27.2 µM (inactive) | 52.4 µM (inactive) | 10.7 µM (inactive) | 28.4 µM (inactive) | 24 µM (inactive) | 28.3 µM (inactive) | 29.8 µM (inactive) | 22.3 µM (inactive) | 33.7 µM (inactive) | – | – | 15.8 µM (inactive) | 32.1 µM (inactive) | 34.3 µM (inactive) | 7.73 µM (inactive) | 22.9 µM (inactive) | 23.7 µM (inactive) | – | 27.4 µM (inactive)
CN(C)C12C=CC=CC3=C(c4ccccc4)C(c4ccccc4)=C(c4ccccc4)C31c1ccccc1C2 (stereo not drawn) | > 100 µM (inactive) | > 100 µM (inactive) | > 100 µM (inactive) | – | > 100 µM (inactive) | > 100 µM (inactive) | > 100 µM (inactive) | – | > 100 µM (inactive) | > 100 µM (inactive) | – | > 100 µM (inactive) | > 100 µM (inactive) | > 100 µM (inactive) | > 100 µM (inactive) | > 100 µM (inactive) | – | > 100 µM (inactive) | > 100 µM (inactive) | > 100 µM (inactive)
COc1ccc2c(c1)CCc1[nH]c3ccccc3c1CCCC2 | – | > 10 µM (inactive) | > 10 µM (inactive) | > 10 µM (inactive) | > 10 µM (inactive) | > 10 µM (inactive) | > 10 µM (inactive) | > 10 µM (inactive) | > 10 µM (inactive) | > 10 µM (inactive) | – | > 10 µM (inactive) | > 10 µM (inactive) | > 10 µM (inactive) | > 10 µM (inactive) | > 10 µM (inactive) | > 10 µM (inactive) | > 10 µM (inactive) | > 10 µM (inactive) | > 10 µM (inactive)
Cc1n[nH]c(=O)n1Nc1ccccc1 | > 100 µM (inactive) | > 100 µM (inactive) | > 100 µM (inactive) | > 100 µM (inactive) | > 100 µM (inactive) | > 100 µM (inactive) | > 100 µM (inactive) | > 100 µM (inactive) | > 100 µM (inactive) | > 100 µM (inactive) | – | > 100 µM (inactive) | > 100 µM (inactive) | > 100 µM (inactive) | > 100 µM (inactive) | – | > 100 µM (inactive) | > 100 µM (inactive) | > 100 µM (inactive) | > 100 µM (inactive)
CCc1cn2c(/C=N/N=C(N)N)c(-c3cc(C)c(Cl)cc3Cl)nc2s1 | – | 0.785 µM (active) | – | 1.64 µM (inactive) | 1.71 µM (inactive) | 1.58 µM (inactive) | 1.71 µM (inactive) | 1.77 µM (inactive) | 3.95 µM (inactive) | 1.56 µM (inactive) | 1.74 µM (inactive) | 1.74 µM (inactive) | 1.63 µM (inactive) | 1.7 µM (inactive) | 1.54 µM (inactive) | 1.97 µM (inactive) | 1.42 µM (inactive) | – | 1.48 µM (inactive) | –
